Tested on: PDC 899932-113-R3-J6 complex spheroid viability
Experiment: Anticancer human tumor 899932-113-R3-J6-PDC patient-derived melanoma cell line growth inhibition [RAS]
Details: for IC50: curve of first compound; for viability, T/C: stronger effect = lower value
Method in brief: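 Tumour cells grown as complex spheroids with HUVEC endothelial cells and mesenchymal stem cells, treated with RAS pathway inhibitor combinations. Each agent spans half-log steps from near clinical Cmax, or 10 microM where Cmax is unknown.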

[1] = second compound 0.000949 µM, first compound 0.00316 µM
[2] = second compound 0.000949 µM, first compound 0.01 µM
[3] = second compound 0.000949 µM, first compound 0.0316 µM
[4] = second compound 0.000949 µM, first compound 0.1 µM
[5] = second compound 0.003 µM, first compound 0.00316 µM
[6] = second compound 0.003 µM, first compound 0.01 µM
[7] = second compound 0.003 µM, first compound 0.0316 µM
[8] = second compound 0.003 µM, first compound 0.1 µM
[9] = second compound 0.00949 µM, first compound 0.00316 µM
[10] = second compound 0.00949 µM, first compound 0.01 µM
[11] = second compound 0.00949 µM, first compound 0.0316 µM
[12] = second compound 0.00949 µM, first compound 0.1 µM
[13] = second compound 0.03 µM, first compound 0.00316 µM
[14] = second compound 0.03 µM, first compound 0.01 µM
[15] = second compound 0.03 µM, first compound 0.0316 µM
[16] = second compound 0.03 µM, first compound 0.1 µM
[17] = second compound 0.0949 µM, first compound 0.00316 µM
[18] = second compound 0.0949 µM, first compound 0.01 µM
[19] = second compound 0.0949 µM, first compound 0.0316 µM
[20] = second compound 0.0949 µM, first compound 0.1 µM
[21] = second compound 0.3 µM, first compound 0.00316 µM
[22] = second compound 0.3 µM, first compound 0.01 µM
[23] = second compound 0.3 µM, first compound 0.0316 µM
[24] = second compound 0.3 µM, first compound 0.1 µM
[25] = second compound 0.000949 µM, first compound 0.316 µM
[26] = second compound 0.000949 µM, first compound 1 µM
[27] = second compound 0.003 µM, first compound 0.316 µM
[28] = second compound 0.003 µM, first compound 1 µM
[29] = second compound 0.00949 µM, first compound 0.316 µM
[30] = second compound 0.00949 µM, first compound 1 µM
[31] = second compound 0.03 µM, first compound 0.316 µM
[32] = second compound 0.03 µM, first compound 1 µM
[33] = second compound 0.0949 µM, first compound 0.316 µM
[34] = second compound 0.0949 µM, first compound 1 µM
[35] = second compound 0.3 µM, first compound 0.316 µM
[36] = second compound 0.3 µM, first compound 1 µM
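For viability, T/C in this document: spheroids exposed to agents for seven days before readout; 100% = DMSO vehicle control wells.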

## CC(C)n1nc(-c2ccc3oc(N)nc3c2)c2c(N)ncnc21 + CCn1c(-c2cc(N3CCN(C)CC3)cnc2C(C)OC)c2c3cc(ccc31)-c1csc(n1)CC(NC(=O)C1CC1C)C(=O)N1CCCC(N1)C(=O)OCC(C)(C)C2
Second compound 0.000949 µM
  IC50: 34.8 nM
Second compound 0.003 µM
  IC50: < 0.316 nM
Second compound 0.00949 µM
  IC50: < 0.316 nM
Second compound 0.03 µM
  IC50: < 0.316 nM
Second compound 0.0949 µM
  IC50: < 0.316 nM
Second compound 0.3 µM
  IC50: < 0.316 nM
Second compound 0.000949 µM, first compound 0.000316 µM
  viability, T/C: 82%
Second compound 0.000949 µM, first compound 0.001 µM
  viability, T/C: 63.3%
[1]
  viability, T/C: 73.7%
[2]
  viability, T/C: 65%
[3]
  viability, T/C: 51.4%
[4]
  viability, T/C: 30.5%
Second compound 0.003 µM, first compound 0.000316 µM
  viability, T/C: 35.6%
Second compound 0.003 µM, first compound 0.001 µM
  viability, T/C: 40.4%
[5]
  viability, T/C: 37%
[6]
  viability, T/C: 34.4%
[7]
  viability, T/C: 29.1%
[8]
  viability, T/C: 18.6%
Second compound 0.00949 µM, first compound 0.000316 µM
  viability, T/C: 4.03%
Second compound 0.00949 µM, first compound 0.001 µM
  viability, T/C: 3.88%
[9]
  viability, T/C: 4.42%
[10]
  viability, T/C: 3.62%
[11]
  viability, T/C: 2.93%
[12]
  viability, T/C: 2.22%
Second compound 0.03 µM, first compound 0.000316 µM
  viability, T/C: 2.41%
Second compound 0.03 µM, first compound 0.001 µM
  viability, T/C: 2.53%
[13]
  viability, T/C: 2.94%
[14]
  viability, T/C: 2.25%
[15]
  viability, T/C: 2.43%
[16]
  viability, T/C: 0.98%
Second compound 0.0949 µM, first compound 0.000316 µM
  viability, T/C: 2.52%
Second compound 0.0949 µM, first compound 0.001 µM
  viability, T/C: 2.03%
[17]
  viability, T/C: 1.78%
[18]
  viability, T/C: 1.41%
[19]
  viability, T/C: 1.07%
[20]
  viability, T/C: 0.65%
Second compound 0.3 µM, first compound 0.000316 µM
  viability, T/C: 1.86%
Second compound 0.3 µM, first compound 0.001 µM
  viability, T/C: 1.82%
[21]
  viability, T/C: 2.06%
[22]
  viability, T/C: 1.52%
[23]
  viability, T/C: 1.91%
[24]
  viability, T/C: 0.73%

## CCN1CCN(Cc2ccc(Nc3ncc(F)c(-c4cc(F)c5nc(C)n(C(C)C)c5c4)n3)nc2)CC1 + CCn1c(-c2cc(N3CCN(C)CC3)cnc2C(C)OC)c2c3cc(ccc31)-c1csc(n1)CC(NC(=O)C1CC1C)C(=O)N1CCCC(N1)C(=O)OCC(C)(C)C2
Second compound 0.000949 µM
  IC50: 220 nM
Second compound 0.003 µM
  IC50: < 3.16 nM
Second compound 0.00949 µM
  IC50: < 3.16 nM
Second compound 0.03 µM
  IC50: < 3.16 nM
Second compound 0.0949 µM
  IC50: < 3.16 nM
Second compound 0.3 µM
  IC50: < 3.16 nM
[1]
  viability, T/C: 80.5%
[2]
  viability, T/C: 75.5%
[3]
  viability, T/C: 75.2%
[4]
  viability, T/C: 63.3%
[25]
  viability, T/C: 43.7%
[26]
  viability, T/C: 18.3%
[5]
  viability, T/C: 38.1%
[6]
  viability, T/C: 39.2%
[7]
  viability, T/C: 33.3%
[8]
  viability, T/C: 30.1%
[27]
  viability, T/C: 23.8%
[28]
  viability, T/C: 10.2%
[9]
  viability, T/C: 4.63%
[10]
  viability, T/C: 4.32%
[11]
  viability, T/C: 4.31%
[12]
  viability, T/C: 3.66%
[29]
  viability, T/C: 5.16%
[30]
  viability, T/C: 6.09%
[13]
  viability, T/C: 3.02%
[14]
  viability, T/C: 2.66%
[15]
  viability, T/C: 2.79%
[16]
  viability, T/C: 2.48%
[31]
  viability, T/C: 3.21%
[32]
  viability, T/C: 2.94%
[17]
  viability, T/C: 2.31%
[18]
  viability, T/C: 2.1%
[19]
  viability, T/C: 2.15%
[20]
  viability, T/C: 2.33%
[33]
  viability, T/C: 2.24%
[34]
  viability, T/C: 2.47%
[21]
  viability, T/C: 1.97%
[22]
  viability, T/C: 2.12%
[23]
  viability, T/C: 2.2%
[24]
  viability, T/C: 2.05%
[35]
  viability, T/C: 1.76%
[36]
  viability, T/C: 2.01%

## C[C@@H](NC(=O)c1ncnc(N)c1Cl)c1ncc(C(=O)Nc2cc(C(F)(F)F)c(Cl)cn2)s1 + CCn1c(-c2cc(N3CCN(C)CC3)cnc2C(C)OC)c2c3cc(ccc31)-c1csc(n1)CC(NC(=O)C1CC1C)C(=O)N1CCCC(N1)C(=O)OCC(C)(C)C2
Second compound 0.000949 µM
  IC50: 5630 nM
Second compound 0.003 µM
  IC50: 2600 nM
Second compound 0.00949 µM
  IC50: < 31.6 nM
Second compound 0.03 µM
  IC50: < 31.6 nM
Second compound 0.0949 µM
  IC50: < 31.6 nM
Second compound 0.3 µM
  IC50: < 31.6 nM
[3]
  viability, T/C: 104%
[4]
  viability, T/C: 113%
[25]
  viability, T/C: 124%
[26]
  viability, T/C: 127%
Second compound 0.000949 µM, first compound 3.16 µM
  viability, T/C: 82%
Second compound 0.000949 µM, first compound 10 µM
  viability, T/C: 18.2%
[7]
  viability, T/C: 66.6%
[8]
  viability, T/C: 76.1%
[27]
  viability, T/C: 83.8%
[28]
  viability, T/C: 82.1%
Second compound 0.003 µM, first compound 3.16 µM
  viability, T/C: 44.4%
Second compound 0.003 µM, first compound 10 µM
  viability, T/C: 12%
[11]
  viability, T/C: 8.34%
[12]
  viability, T/C: 12.9%
[29]
  viability, T/C: 15.3%
[30]
  viability, T/C: 13.6%
Second compound 0.00949 µM, first compound 3.16 µM
  viability, T/C: 9.29%
Second compound 0.00949 µM, first compound 10 µM
  viability, T/C: 4.48%
[15]
  viability, T/C: 3.38%
[16]
  viability, T/C: 2.96%
[31]
  viability, T/C: 2.78%
[32]
  viability, T/C: 2.66%
Second compound 0.03 µM, first compound 3.16 µM
  viability, T/C: 2.41%
Second compound 0.03 µM, first compound 10 µM
  viability, T/C: 2.96%
[19]
  viability, T/C: 2.75%
[20]
  viability, T/C: 2.95%
[33]
  viability, T/C: 2.73%
[34]
  viability, T/C: 2.82%
Second compound 0.0949 µM, first compound 3.16 µM
  viability, T/C: 2.56%
Second compound 0.0949 µM, first compound 10 µM
  viability, T/C: 2.32%
[23]
  viability, T/C: 2.53%
[24]
  viability, T/C: 2.03%
[35]
  viability, T/C: 2.73%
[36]
  viability, T/C: 2.35%
Second compound 0.3 µM, first compound 3.16 µM
  viability, T/C: 3.08%
Second compound 0.3 µM, first compound 10 µM
  viability, T/C: 2.77%
